Series [1] addresses T1, Nuclear receptor ROR-gamma (Homo sapiens, UniProt P51449).
T1 sequence (P51449 whole entry): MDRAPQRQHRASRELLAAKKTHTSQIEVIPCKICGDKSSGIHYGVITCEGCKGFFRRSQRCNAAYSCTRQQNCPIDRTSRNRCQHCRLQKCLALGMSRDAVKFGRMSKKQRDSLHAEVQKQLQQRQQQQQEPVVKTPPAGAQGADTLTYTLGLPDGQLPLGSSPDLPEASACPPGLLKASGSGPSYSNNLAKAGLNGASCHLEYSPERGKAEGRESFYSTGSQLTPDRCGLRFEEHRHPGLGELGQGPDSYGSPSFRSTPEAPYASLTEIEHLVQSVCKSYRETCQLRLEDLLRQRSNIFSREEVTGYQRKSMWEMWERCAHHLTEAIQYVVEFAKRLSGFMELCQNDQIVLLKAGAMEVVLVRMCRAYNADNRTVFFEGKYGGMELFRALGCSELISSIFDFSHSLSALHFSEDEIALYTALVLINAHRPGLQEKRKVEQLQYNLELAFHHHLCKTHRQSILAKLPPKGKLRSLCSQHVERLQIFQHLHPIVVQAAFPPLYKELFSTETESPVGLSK

The target of series [2] is T1, Nuclear receptor ROR-gamma. The series can be described thus: Agonist activity at APC-labeled RORgammat LBD (unknown origin) incubated for 1 hr in presence of europium-labeled co-activator SRC1 by FRET assay.
The nature of series [3]: Half life in CD-1 mouse liver microsomes at 1 uM measured up to 60 mins in presence of NADPH by LC-MS/MS analysis. In general terms: Liver microsomes are vesicles of endoplasmic reticulum, rich in cytochrome P450 enzymes.
Series [4] can be described thus: in vitro. The settings on record: CD-1, mouse, liver.
Series [5] is described as follows: in vitro. Conditions: CD-1, mouse, liver microsomes.

The compound `CC(=O)N1CCN(c2ccc3c(c2)CCCN3S(=O)(=O)N(C)CCCc2ccccc2)CC1` yielded an XC50 in series [1] of 7230 nM. The same measure, in the same setting: as for `CC(=O)N1CCN(c2ccc3c(c2)CCCN3S(=O)(=O)N(C)Cc2cccc(C)c2)CC1`, the figure is 768 nM; as for `CC(=O)N1CCN(c2ccc3c(c2)CCCN3S(=O)(=O)CCc2ccccc2)CC1`, 906 nM. In the case of `CC(=O)N1CCN(c2ccc3c(c2)CCCN3S(=O)(=O)c2ccccc2)CC1`, the EC50 (usually the concentration needed to bring the measured effect to its halfway point) in series [2] came out at 4840 nM. Compound `CC(=O)N1CCN(c2ccc3c(c2)CCCN3S(=O)(=O)N(C)Cc2ccccc2Cl)CC1` yielded an XC50 in series [1] of 86 nM. The same measure, in the same setting: the value for `CC(=O)N1CCN(c2ccc3c(c2)CCCN3S(=O)(=O)N(C)Cc2ccc(C(F)(F)F)cc2)CC1` was 1550 nM; that for `CC(=O)N1CCN(c2ccc3c(c2)CCCN3S(=O)(=O)N(C)CCc2ccccc2)CC1` was 910 nM.

In series [1], `CC(=O)N1CCN(c2ccc3c(c2)CCCN3S(=O)(=O)N(C)Cc2cccc(F)c2)CC1` displayed an XC50 of 324 nM. With `CC(=O)N1CCN(c2ccc3c(c2)CCCN3S(=O)(=O)N(C)Cc2ccccc2C)CC1`, the XC50 in series [1] came to 143 nM. With `CC(=O)N1CCN(c2ccc3c(c2)CCCN3S(=O)(=O)N(C)Cc2cccc(Cl)c2)CC1`, the XC50 in series [1] came to 104 nM. Take `CC(=O)N1CCN(c2ccc(CN(C3CCC3)S(=O)(=O)Cc3ccccc3)cc2)CC1`: the half-life – broadly, how long it takes for the measured level to halve – at 1 h, 1 µM in series [3] was found to be 2.3 min. Further, the CLint scaled (as a rule, the rate of metabolic loss divided by the concentration) at 1 h, 1 µM in the series “in vitro [4]” worked out at 2420 mL/min/kg. Also, the microsomal CLint (as a rule, the capacity of the preparation to metabolise the compound, expressed as a volume cleared per time) at 1 h, 1 µM in “in vitro [5]” was determined as 612 µL/min/mg.

These data come from ChEMBL document CHEMBL4706491, “Discovery of novel N-sulfonamide-tetrahydroquinolines as potent retinoic acid receptor-related orphan receptor γt inverse agonists for the treatment of autoimmune diseases” (Eur J Med Chem, 2020).
